#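 The compound was tested at five concentrations on cells cultured in 96-well plates, with a 48-hour exposure period. At the GI50, growth is halved. The concentration for full growth arrest is given as TGI.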
# Columns and labels:
# Assay in all cases: NCI-60 cell line screen, 48 h
# ACHN renal = test system: ACHN renal
# COLO 205 colon = test system: COLO 205 colon
# IGROV1 ovarian = test system: IGROV1 ovarian
# K-562 leukemia = test system: K-562 leukemia
# NCI-H23 lung = test system: NCI-H23 lung
# OVCAR-5 ovarian = test system: OVCAR-5 ovarian
# OVCAR-8 ovarian = test system: OVCAR-8 ovarian
# SF-539 CNS = test system: SF-539 CNS
# SW-620 colon = test system: SW-620 colon
# UACC-62 melanoma = test system: UACC-62 melanoma
SMILES,GI50 (ACHN renal),TGI (ACHN renal),GI50 (COLO 205 colon),TGI (COLO 205 colon),GI50 (IGROV1 ovarian),TGI (IGROV1 ovarian),GI50 (K-562 leukemia),TGI (K-562 leukemia),GI50 (NCI-H23 lung),TGI (NCI-H23 lung),GI50 (OVCAR-5 ovarian),TGI (OVCAR-5 ovarian),GI50 (OVCAR-8 ovarian),TGI (OVCAR-8 ovarian),GI50 (SF-539 CNS),TGI (SF-539 CNS),GI50 (SW-620 colon),TGI (SW-620 colon),GI50 (UACC-62 melanoma),TGI (UACC-62 melanoma)
COC(=O)[C@H](Cc1cn(C)cn1)NC(=O)[C@@H](NC(=O)Nc1cc(C(F)(F)F)cc(C(F)(F)F)c1)C(C)(C)C,> 10 µM,> 10 µM,> 10 µM,> 10 µM,> 10 µM,> 10 µM,> 10 µM,> 10 µM,> 10 µM,> 10 µM,> 10 µM,> 10 µM,> 10 µM,> 10 µM,> 10 µM,> 10 µM,> 10 µM,> 10 µM,> 10 µM,> 10 µM
O=C1CCC(N2C(=O)c3cccc(NCCOCCOCCNC(=O)c4cc5c(o4)C(=O)c4ccccc4C5=O)c3C2=O)C(=O)N1 (stereo not drawn),2.3 µM,6.62 µM,1.98 µM,3.94 µM,1.87 µM,4.29 µM,2.55 µM,12.7 µM,0.352 µM,1.71 µM,1.67 µM,3.07 µM,2.04 µM,10.5 µM,1.62 µM,2.99 µM,1.95 µM,4.64 µM,1.46 µM,2.98 µM
COc1ccc(/C=C2\CCc3ccccc3C2=O)cc1OC,,> 100 µM,,47.2 µM,,> 100 µM,,> 100 µM,,> 100 µM,,> 100 µM,,> 100 µM,,65.9 µM,,82.5 µM,,34.1 µM
COCC(=O)NC/C=C/c1ccc2ncnc(Nc3ccc(Oc4ccc(C)nc4)c(C)c3)c2c1,3.98 µM,69.3 µM,6 µM,25.6 µM,15.9 µM,> 89.2 µM,17.8 µM,> 91.4 µM,17.4 µM,55.4 µM,12.7 µM,35.9 µM,15.9 µM,92.4 µM,15.1 µM,31.7 µM,17.4 µM,40.9 µM,10.6 µM,34 µM
N#CC(C(=O)O)C(c1c(Cl)cccc1Cl)C(C#N)C(=O)O (stereo not drawn),,> 100 µM,,> 100 µM,,> 100 µM,,> 100 µM,,> 100 µM,,> 100 µM,,> 100 µM,,> 100 µM,,> 100 µM,,> 100 µM
CCOc1ccc(N=Cc2ccc3ccccc3n2)cc1,,> 100 µM,,> 100 µM,,> 100 µM,,> 100 µM,,> 100 µM,,> 100 µM,,> 100 µM,,> 100 µM,,> 100 µM,,> 100 µM
OCCCCCNc1ccnc2cc(Cl)ccc12,,> 100 µM,,> 100 µM,,> 100 µM,,64.7 µM,,> 100 µM,,> 100 µM,,> 100 µM,,> 100 µM,,> 100 µM,,> 100 µM
COc1c(N2CCN(CN3C(=O)C(=O)c4ccccc43)C(C)C2)c(F)cc2c(=O)c(C(=O)O)cn(C3CC3)c12 (stereo not drawn),> 100 µM,> 100 µM,66.5 µM,> 100 µM,> 100 µM,> 100 µM,47 µM,> 100 µM,> 100 µM,> 100 µM,13.6 µM,99.4 µM,> 100 µM,> 100 µM,> 100 µM,> 100 µM,33.5 µM,> 100 µM,47.5 µM,> 100 µM
O=C1c2ccccc2-c2c1c1ccc([N+](=O)[O-])cc1c(=O)n2CCCn1ccnc1,,0.704 µM,4.57 µM,> 38.5 µM,0.696 µM,2.71 µM,0.886 µM,5.16 µM,0.119 µM,0.292 µM,0.984 µM,4.25 µM,0.118 µM,4.78 µM,0.0149 µM,0.0838 µM,,0.529 µM,0.0116 µM,0.0348 µM
CC(=Nc1ccccc1)C1=C(O)C(Cc2ccc(F)cc2)NC1=O (stereo not drawn),8.24 µM,> 100 µM,0.421 µM,3.21 µM,1.71 µM,> 100 µM,0.343 µM,> 100 µM,1.71 µM,> 100 µM,5.21 µM,> 100 µM,2.73 µM,> 100 µM,1.36 µM,12.1 µM,0.432 µM,> 100 µM,0.664 µM,> 100 µM
Cc1ccc2c(c1)-c1oc(=O)c(-c3cc4ccccc4oc3=O)cc1C(O)O2 (stereo not drawn),10.2 µM,24.4 µM,18.7 µM,41.7 µM,17.4 µM,52.1 µM,26.2 µM,76.6 µM,23.5 µM,45.8 µM,20.8 µM,49.8 µM,19.9 µM,62.5 µM,13.3 µM,26 µM,18.9 µM,33.5 µM,17.4 µM,35.6 µM
CN=C(N)NC,,> 100 µM,,> 100 µM,,> 100 µM,,> 100 µM,,> 100 µM,,> 100 µM,,> 100 µM,,> 100 µM,,> 100 µM,,> 100 µM
[N-]=[N+]=NC1C2CC3CC(C2)CC1C3 (stereo not drawn),,> 100 µM,,> 100 µM,,> 100 µM,,> 100 µM,,> 100 µM,,> 100 µM,,> 100 µM,,> 100 µM,,> 100 µM,,> 100 µM
COc1cc2ccc3c4cc(OC)c(OC(C)C)cc4c[n+](C)c3c2cc1OC,,> 100 µM,,36.5 µM,,> 100 µM,,> 100 µM,,> 100 µM,,> 100 µM,,> 100 µM,,> 100 µM,,> 100 µM,,> 100 µM
Fc1ccc2c(c1)cc1ccc3cccc4ccc2c1c34,,> 100 µM,,> 100 µM,,> 100 µM,,> 100 µM,,> 100 µM,,> 100 µM,,> 100 µM,,> 100 µM,,> 100 µM,,> 100 µM

# From PubChem BioAssay (NCI)
